Experimental data: the supplement of paper PMC4862054

Key:
Test in all cases: normalised response (% of control), CellTiter-Glo; higher = more viable cells (100 = DMSO, 0 = benzethonium chloride kill control)
Settings in all cases: incubation time: 72 h
MCF-10A = tested on: MCF-10A
How it was run: (§1)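 For each plate, 0.1 % DMSO was set to 100 and a positive kill control to 0. Breast cancer cell lines (20 µl suspension) were seeded into 384-well plates already holding compound at 5 concentrations in 10-fold steps over a 10,000-fold range chosen per compound, and incubated for 72 h. CellTox Green fluorescence at 485/520 nm was read before CellTiter-Glo luminescence, which followed 10 min at room temperature. Each value is the normalised signal at one concentration.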

MFM-223 = tested on: MFM-223
How it was run: as §1

SK-BR-3 = tested on: SK-BR-3
How it was run: as §1

CAL-85-1 = tested on: CAL-85-1
How it was run: as §1

CAL-148 = tested on: CAL-148
How it was run: as §1

MDA-MB-468 = tested on: MDA-MB-468
How it was run: as §1

BT-549 = tested on: BT-549
How it was run: as §1

HCC1599 = tested on: HCC1599
How it was run: as §1

CAL-120 = tested on: CAL-120
How it was run: as §1

MDA-MB-436 = tested on: MDA-MB-436
How it was run: as §1

CAL-51 = tested on: CAL-51
How it was run: as §1

HCC1143 = tested on: HCC1143
How it was run: as §1

MDA-MB-231 = tested on: MDA-MB-231
How it was run: as §1

Hs578T = tested on: Hs578T
How it was run: as §1

MDA-MB-453 = tested on: MDA-MB-453
How it was run: as §1

BT-474 = tested on: BT-474
How it was run: as §1

DU-4475 = tested on: DU-4475
How it was run: as §1

HDQ-P1 = tested on: HDQ-P1
How it was run: as §1

HCC1937 = tested on: HCC1937
How it was run: as §1

Structure (SMILES) | normalised response (MCF-10A) [%] | normalised response (MFM-223) [%] | normalised response (SK-BR-3) [%] | normalised response (CAL-85-1) [%] | normalised response (CAL-148) [%] | normalised response (MDA-MB-468) [%] | normalised response (BT-549) [%] | normalised response (HCC1599) [%] | normalised response (CAL-120) [%] | normalised response (MDA-MB-436) [%] | normalised response (CAL-51) [%] | normalised response (HCC1143) [%] | normalised response (MDA-MB-231) [%] | normalised response (Hs578T) [%] | normalised response (MDA-MB-453) [%] | normalised response (BT-474) [%] | normalised response (DU-4475) [%] | normalised response (HDQ-P1) [%] | normalised response (HCC1937) [%]
CC[C@H](C)C(=O)O[C@H]1C[C@H](O)C=C2C=C[C@H](C)[C@H](CC[C@@H](O)C[C@@H](O)CC(=O)O)[C@H]21 [Pravastatin] (1 nM) | 96 | 93.1 | 94.2 | 92.6 | 87.5 | 99.9 | 102 | 117 | 101 | 99.6 | 104 | 95.1 | 102 | 101 | 99.8 | 99.6 | 95.5 | 103 | 97.6
CC(=O)Nc1cccc(-n2c(=O)n(C3CC3)c(=O)c3c(Nc4ccc(I)cc4F)n(C)c(=O)c(C)c32)c1 [Trametinib] (0.025 nM) | 96.3 | 100 | 110 | 102 | 111 | 99.4 | 94.9 | 101 | 106 | 100 | 115 | 95.5 | 104 | 99.5 | 109 | 111 | 99.2 | 98.6 | 96.5
O=C(O)CCCCC(CCSCc1ccccc1)SCc1ccccc1 (centres undefined) [CPI-613] (10 nM) | 112 | 105 | 109 | 97.8 | 103 | 101 | 89.8 | 118 | 98.7 | 105 | 95.5 | 108 | 96.2 | 96.6 | 105 | 105 | 104 | 102 | 99
CCCCC(=O)OCC(=O)[C@]1(O)Cc2c(O)c3c(c(O)c2[C@@H](O[C@H]2C[C@H](NC(=O)C(F)(F)F)[C@H](O)[C@H](C)O2)C1)C(=O)c1c(OC)cccc1C3=O [Valrubicin] (5 nM) | 106 | 105 | – | 95.6 | 105 | 93.1 | 91.1 | 96.5 | 94.6 | 101 | 60.1 | 102 | 97 | 102 | 103 | 97.6 | 101 | 95.5 | 102
Nc1ccccc1NC(=O)c1ccc(CNC(=O)OCc2cccnc2)cc1 [Entinostat] (1 nM) | 98.1 | 97.2 | 102 | 106 | 98.2 | 106 | 103 | 95.6 | 99.2 | 102 | 85.2 | 103 | 102 | 98.8 | 114 | 92.8 | 99.7 | 102 | 99.2
Cc1ccc(-c2cc(C(F)(F)F)nn2-c2ccc(S(N)(=O)=O)cc2)cc1 [Celecoxib] (10 nM) | 105 | 102 | – | 103 | 102 | 100 | 102 | 105 | 101 | 105 | 106 | 104 | 100 | 107 | 115 | 27.3 | 101 | 98.1 | 98.3
CC(=O)Nc1cccc(-n2c(=O)n(C3CC3)c(=O)c3c(Nc4ccc(I)cc4F)n(C)c(=O)c(C)c32)c1 [Trametinib] (0.25 nM) | 82.5 | 109 | 105 | 98.6 | 111 | 98.8 | 92.7 | 99.7 | 102 | 104 | 122 | 99.1 | 107 | 94.7 | 100 | 109 | 96.3 | 108 | 99.2
CC[C@H](Nc1ncnc2[nH]cnc12)c1nc2cccc(F)c2c(=O)n1-c1ccccc1 [GS-1101] (1 nM) | 79.2 | 85.4 | 88 | 95.1 | 84.8 | 93.4 | 102 | 96.3 | 90.1 | 92.5 | 101 | 89.9 | 98.5 | 96.8 | 88.3 | 92 | 100 | 88.3 | 91.6
Nc1nc(F)nc2c1ncn2[C@@H]1O[C@H](CO)[C@@H](O)[C@@H]1O [Fludarabine] (1 nM) | 113 | 109 | 111 | 101 | 97.2 | 103 | 101 | 102 | 98.4 | 120 | 93.1 | 110 | 99.9 | 110 | 112 | 111 | 99.8 | 103 | 99.3
CC[C@@H]1C(=O)N(C)c2cnc(Nc3ccc(C(=O)NC4CCN(C)CC4)cc3OC)nc2N1C1CCCC1 [BI 2536] (1 nM) | 102 | 96.5 | 97.2 | 100 | 112 | 92.6 | 98.2 | 108 | 97.2 | 100 | 133 | 100 | 101 | 96.7 | 84.6 | 101 | 107 | 97.8 | 94.6
C=CCc1cccc(/C=N/NC(=O)CN2CCN(Cc3ccccc3)CC2)c1O [PAC-1] (10 nM) | 112 | 110 | 107 | 100 | 107 | 111 | 97.7 | 112 | 94.6 | 98.3 | 108 | 100 | 100 | 103 | 104 | 98.4 | 106 | 98.9 | 103
O=C(O)C1(C(=O)O)CCC1.[NH2-].[NH2-].[Pt+2] [Carboplatin] (10 nM) | 103 | 98.4 | – | 99.5 | 105 | 96.8 | 102 | 99.2 | 99.3 | 95.4 | 57.9 | 104 | 97 | 101 | 99.7 | 103 | 95.9 | 96.9 | 96.6
Nc1ncn([C@H]2C[C@H](O)[C@@H](CO)O2)c(=O)n1 [Decitabine] (10 nM) | 98.5 | 103 | – | 90 | 95.4 | 96 | 93 | 102 | 103 | 97.3 | 124 | 103 | 102 | 96.3 | 97.7 | 104 | 105 | 98.8 | 94.6
Nc1nc(F)nc2c1ncn2[C@@H]1O[C@H](CO)[C@@H](O)[C@@H]1O [Fludarabine] (10 nM) | 116 | 110 | – | 98.8 | 108 | 105 | 101 | 98.5 | 101 | 109 | 120 | 108 | 109 | 105 | 103 | 108 | 107 | 97 | 107
Nc1ccccc1NC(=O)c1ccc(CNC(=O)OCc2cccnc2)cc1 [Entinostat] (10 nM) | 109 | 103 | – | 107 | 104 | 98.4 | 96.8 | 95.7 | 94.2 | 102 | 94 | 101 | 98.6 | 102 | 94.6 | 100 | 101 | 97.5 | 99.5
N#Cc1ccc(C(c2ccc(C#N)cc2)n2cncn2)cc1 [Letrozole] (10 nM) | 108 | 103 | – | 99.9 | 99.3 | 99.6 | 95.3 | 98.2 | 95.7 | 97.1 | 126 | 97.4 | 101 | 103 | 102 | 103 | 98.2 | 97.8 | 97.6
Cc1cnc(NC(=O)Nc2cc(Br)c(C)cc2OC[C@@H]2CNCCO2)cn1 [Rabusertib] (1 nM) | 105 | 113 | – | 103 | 118 | 94.9 | 94.6 | 101 | 98.1 | 104 | 115 | 104 | 107 | 102 | 109 | 103 | 108 | 90.4 | 106
Oc1ncc(N(CCCl)CCCl)c(O)n1 [Uracil mustard] (10 nM) | 106 | 103 | – | 95.2 | 107 | 90.3 | 97.2 | 87 | 102 | 105 | 80.1 | 105 | 105 | 107 | 88.8 | 103 | 97.7 | 95.1 | 99.7
COc1cc([C@@H]2c3cc4c(cc3[C@@H](O[C@@H]3O[C@@H]5CO[C@@H](c6cccs6)O[C@H]5[C@H](O)[C@H]3O)[C@H]3COC(=O)[C@H]23)OCO4)cc(OC)c1O [Teniposide] (10 nM) | 98.8 | 98 | – | 100 | 93.2 | 98.3 | 91.9 | 103 | 105 | 89.7 | 112 | 96.9 | 99.4 | 100 | 101 | 96.8 | 78.2 | 95.3 | 101
CCc1cncnc1N1CCN(Cc2nc3ccc(C(F)(F)F)cc3[nH]2)CC1 (10 nM) | 113 | 103 | – | 99.1 | 115 | 101 | 93.2 | 98.7 | 101 | 109 | 111 | 111 | 108 | 107 | 110 | 108 | 104 | 98.8 | 98.1
